# Experiments:
# Format in all cases: cell-based, human
# MCF-7 cells [1] = test: Transwell migration assay, IGF-I+IGFBP-3+VN (TRI)-stimulated MCF-7 cell migration
# Protocol: FIG. 6 is a graphical representation showing MCF-7 cell migration in response to VN peptides. MCF-7 cells were seeded onto the upper-surface of a Transwell inserts coated on the under-surface with treatments containing IGF-I+IGFBP-3+VN (TRI; 10 nM) with or without increasing concentrations of either peptide P7, P8 or Pneg. Migration was assessed after 15 hours. Data is represented as percentage of change in migration compared to the TRI only control. Error bars indicate standard error mean.
# This assay has been repeated three times with treatments tested in triplicate wells in each replicate experiment.
# The breast cancer epithelial cell line MCF-7 was used for this assay. Migration was assessed by measuring relative number of cells migrating through 8-μm pore Transwell membranes in response to substrate-bond proteins complexes. IGFBP-3 was allowed to bind either peptide P7, P8 or a combination of P7 and P8 for 2 hours. IGF-I was later added to this protein mix which was then added to Transwells pre-coated with VN. Post-overnight incubation, unbound proteins were removed, Transwells washed twice and cells seeded onto the upper chamber. Cells migrated to the under-surface over 15 hours were indirectly quantified using crystal violet staining.
# MCF-7 cells [2] = test: 3D Matrigel growth assay of MCF-7 tumor spheroids
# From the text: FIG. 7 is a photographic and graphical representation showing MCF-7 3D cell growth in response to peptide antagonists. MCF-7 cells suspended in media containing 1% serum and 2.5% Matrigel (Matrigel media) were layered onto a thin layer of 100% Matrigel. Spheroids were allowed to form in Matrigel media containing VN, TRI or TRI supplemented with peptides P7 and P8. Cells were allowed to grow for 14 days with media+proteins changed every 3 days. (A) Phase contrast and fluorescence microscopy was used to obtain images of the spheroids treated with 90 nM P7, P8 or P7+8. The fluorescent images were subjected to analysis using Image J to calculate spheroid sizes. The images post-ImageJ analyses are depicted in the bottom panel of A. All the images depicted are representative images obtained from triplicate experiments with treatments tested in duplicates in each replicate experiment. Scale bar denotes 100 μm. (B) Scatter plot depicts mean spheroid size (μm^2) at Day 14 for each treatment, calculated using Image-J (90 nM peptide treatments are depicted here). Each data point in the graph is the average size of all spheroids present in a single field of view at 40× magnification. ** denotes p<0.01 and * denotes p<0.05. (C) To measure cell viability/proliferation the 3D culture was treated on Day 14 with 5% Alamar Blue dye for 4 hours and fluorescence intensities were recorded. Error bars indicate SEM. ** denotes p<0.01 Vs TRI and * denotes p<0.05 Vs TRI. The experiment was repeated twice with treatments tested in duplicate wells in each replicate experiment. TRI=IGF-I:IGFBP-5:VN trimeric complex (equimolar at 10 nM concentrations).
# To closely mimic in vivo conditions, cells were grown in a 3D matrix (Matrigel) closely resembling in vivo extracellular matrix physiology. MCF-7 cells suspended in growth media containing 1% serum and 2.5% Matrigel (Matrigel media) were layered onto a thin layer of 100% Matrigel. Tumor spheroids were allowed to form for 3 days after which spent media was replenished with Matrigel media containing VN only, trimeric complex, or trimeric complex supplemented with increasing concentrations of peptides (P7, P8 or P7+P8). Cells were allowed to grow for additional 11 days with media+proteins changed every 3 days. Spheroid morphology was assessed using phase-contrast microscopy and cell viability was measured using AlamarBlue, a fluorescent metabolic dye.
# MCF-7 cells [3] = test: Transwell migration assay, IGF-I+IGFBP-5+VN trimeric complex-stimulated MCF-7 cell migration
# From the text: Two motifs (motifs 1 and 8) within native VN, deemed potentially significant in supporting the binding of IGF-II, IGFBP-3 and IGFBP-5, were identified as outlined in the previous section. After preliminary in silico analyses motif 8 (J4-7) was deemed as potentially the most significant region within native VN supporting binding interactions of all the three IGF-II, IGFBP-3 and IGFBP-5 proteins and was chosen for the initial analyses. The VN-peptide covering the sequences of motif 8 was designed such that it covered all the 3AA frameshift sets that contributed to a positive spot within the motif 8 (see, FIG. 3 and Table 7). The sequence of this peptide is RVNLRTRRVDTVDPPYPRS [SEQ ID NO:100] and is designated P8. […] The sequence of that peptide is […] [SEQ ID NO:86] and is designated P7. […] The functional effects of these peptides on IGF-I:IGFBP:VN-stimulated breast cancer cell migration were investigated using Transwell® assays. Transwells® were pre-bound with VN, either alone or in combination with IGF-I and IGFBP-5 (TRI). Treatment with TRI supplemented with increasing concentrations of peptides P7 and/or P8 were assayed. TRI supplemented with Anlg or Neg peptide were included as positive and negative controls of migration inhibition, respectively. All unbound proteins were removed with washing and MCF-7 cell migration was assessed over 15 hours.
# The Transwell® inserts were prepared by pre-binding the lower chamber and the under-surface of the 8-μm pore membranes with proteins as described below. For all 2D functional assays described throughout this study, including Transwell® the treatments for the pre-binding steps were VN, IGF-I+IGFBP-5+VN (TRI) complex, either alone or in combination with respective controls or VN-peptides. The concentrations of the proteins added into the culture wells were VN, 1 μg/mL; IGF-I, 30 ng/mL and IGFBP-5, 90 ng/mL, unless otherwise stated. The concentration of VN-peptides used are indicated where appropriate.
# Optimal IGF-I:IGFBP-5:VN-mediated attachment and migration of MCF-7 cells in multiwell plates is obtained by pre-binding human native-IGF-I and/or IGFBP-5 and VN at concentrations of 30 ng/mL, 90 ng/mL and 1 μg/mL per well, respectively, to the lower chambers and under surfaces of Transwells®. […] For Anlg, concentrations varying from 30 ng/mL to 300 ng/mL were used.
# Transwells® were prepared by pre-binding the test proteins, either alone or in combinations, to the lower chambers and under-surfaces of Transwells® following procedures previously described (Kricker et al., 2003). Briefly, 0.5 mL DMEM/F12 serum-free phenol-red free medium (SFM) containing 1 μg/mL VN was added to the lower chambers of 24-well, 8-μm pore Transwell® plates and incubated for 3 hours at 37° C. Unbound VN was removed and the wells were washed twice with 0.5 mL SFM+0.5% BSA following which 0.5 mL of SFM+0.5% BSA was placed in the lower chamber to block surfaces with no protein bound. To pre-bind growth factors, 0.5 mL SFM+0.05% BSA containing native IGF-I (30 ng/mL), IGFBP-5 (90 ng/mL) or Anlg, either alone or in combination, were added to the lower chambers of the Transwells® and incubated overnight at 4° C. The solution containing unbound growth factors was removed and the wells were washed twice with SFM+0.05% BSA and replaced with 0.5 mL of SFM+0.05% BSA. Throughout the pre-binding procedure care was taken to keep the upper surface of the Transwell® inserts dry.
# Migration assays were essentially performed following protocols described previously in Leavesley et al 1993, J Cell Biol. 121:163-70. The cells in culture flasks were split 1:1, 24 hours prior to performing the migration assay. The cells were serum-starved for 4 hours and a cell suspension containing 6×10^4 cells in 200 μL SFM+0.05% BSA was seeded onto the upper-surface of the pre-coated Transwell® inserts and incubated for 15 hours at 37° C., 5% CO2 (refer to above for proteins pre-bound and concentrations used). […]
sequence,measurement,setting,value
"RVNLRTRRVDTVDPPYPRS (listed as Homo sapiens) [Peptide P8, human VN motif 8 mimic]",Inhibition of TRI-stimulated MCF-7 cell migration,"MCF-7 cells [1]; 30 nM peptide dose, TRI 10 nM, 15 hours (most significant inhibition)",returned to the ‘VN only’ treatment levels
same,Inhibition of TRI-stimulated MCF-7 cell migration,"MCF-7 cells [1]; increasing peptide concentrations added to TRI (IGF-I+IGFBP-3+VN; 10 nM), 15 hours",dose dependent inhibition
same,TRI-stimulated cell viability (AlamarBlue),"MCF-7 cells [2]; 90 nM peptide, Day 14, 3D Matrigel culture",significantly inhibit
same,Spheroid size (ImageJ) versus control TRI treatment,"MCF-7 cells [2]; 90 nM peptide, Day 14, phalloidin staining",highest inhibitory effects
same,Size of TRI-treated tumor spheroids (phase-contrast microscopy),"MCF-7 cells [2]; increasing concentrations of peptides, Matrigel 3D culture, 14 days",decrease with increasing concentrations
same,MCF-7 cell migration,"MCF-7 cells [3]; TRI supplemented with peptide at 3× molar concentration of IGFBP-5 (43 ng/mL P7, 38 ng/mL P8), 15 hours",94.4±1 % of VN
same,MCF-7 cell migration,"MCF-7 cells [3]; TRI supplemented with peptide at 9× molar concentration of IGFBP-5, 15 hours",121.7±8 % of VN

# From patent US10106582B2, “Complex-formation-modulating agents and uses therefor” (Factor Therapeutics Limited, priority 2012, dated 2018)
